Laboratory results reported in patent publication US11740249B2, “Recognition of cellular target binding by a bioactive agent using intracellular bioluminescence resonance energy transfer” (Promega Corporation, priority 2012, dated 2023).

Tests used:
[1] = target: T1, NANOLUC-HDAC6 (Homo sapiens, UniProt Q9UBN7); test: BRET compound panel screen by competitive displacement of SAHA-TOM, NANOLUC-HDAC6 in HEK293 cells (Example 15); type: binding; conditions: 1 uM SAHA-TOM (PBI-4968), 2 h
T1 construct: expressed in transfected cells; host or cells: HEK293
T1 sequence (Q9UBN7 with tags, fused parts or gaps): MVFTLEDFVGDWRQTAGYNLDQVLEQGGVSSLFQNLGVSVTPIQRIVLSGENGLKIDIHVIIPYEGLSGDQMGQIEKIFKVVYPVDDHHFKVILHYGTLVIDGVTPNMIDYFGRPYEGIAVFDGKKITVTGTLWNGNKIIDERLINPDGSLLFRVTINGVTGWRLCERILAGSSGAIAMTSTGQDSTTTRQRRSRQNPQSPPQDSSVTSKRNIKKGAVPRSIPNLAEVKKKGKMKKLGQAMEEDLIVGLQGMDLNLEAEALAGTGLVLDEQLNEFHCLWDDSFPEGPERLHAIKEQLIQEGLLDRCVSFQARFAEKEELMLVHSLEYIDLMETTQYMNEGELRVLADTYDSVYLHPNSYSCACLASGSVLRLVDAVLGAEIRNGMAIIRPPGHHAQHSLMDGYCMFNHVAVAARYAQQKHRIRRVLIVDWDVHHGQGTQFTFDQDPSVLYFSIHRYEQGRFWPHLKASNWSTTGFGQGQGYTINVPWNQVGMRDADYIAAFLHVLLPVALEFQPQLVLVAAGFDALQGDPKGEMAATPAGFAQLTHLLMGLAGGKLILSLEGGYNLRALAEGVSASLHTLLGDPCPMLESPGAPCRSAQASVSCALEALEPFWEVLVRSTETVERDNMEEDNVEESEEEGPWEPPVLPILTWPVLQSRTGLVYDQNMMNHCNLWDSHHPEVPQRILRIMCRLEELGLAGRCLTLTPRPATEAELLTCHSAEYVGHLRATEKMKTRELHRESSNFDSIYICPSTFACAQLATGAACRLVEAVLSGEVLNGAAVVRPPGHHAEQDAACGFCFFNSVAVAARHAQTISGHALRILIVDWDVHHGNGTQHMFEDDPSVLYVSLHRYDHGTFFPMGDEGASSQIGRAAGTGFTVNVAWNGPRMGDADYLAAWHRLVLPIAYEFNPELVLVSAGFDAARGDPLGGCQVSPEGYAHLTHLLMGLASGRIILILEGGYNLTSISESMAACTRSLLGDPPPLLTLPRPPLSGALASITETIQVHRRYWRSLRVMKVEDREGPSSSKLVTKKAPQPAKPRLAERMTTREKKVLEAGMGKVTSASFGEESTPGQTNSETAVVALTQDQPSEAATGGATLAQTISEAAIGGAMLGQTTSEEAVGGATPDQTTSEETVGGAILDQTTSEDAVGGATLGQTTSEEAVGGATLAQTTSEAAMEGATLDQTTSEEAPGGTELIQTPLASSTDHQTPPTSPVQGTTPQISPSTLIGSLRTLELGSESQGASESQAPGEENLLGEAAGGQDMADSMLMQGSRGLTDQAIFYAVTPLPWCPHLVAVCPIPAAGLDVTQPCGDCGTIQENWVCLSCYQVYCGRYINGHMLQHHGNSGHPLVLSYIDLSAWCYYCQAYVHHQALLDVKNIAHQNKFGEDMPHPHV

[2] = target: T2, NANOLUC-HDAC6 fusion protein (Homo sapiens, UniProt Q9UBN7); test: Intracellular BRET tracer binding, NANOLUC-HDAC6 in HEK293 cells (Example 1); conditions: live HEK293 cells, compared to SAHA-TMR (PBI-4967)
T2 construct: expressed in transfected cells; host or cells: HEK293
T2 sequence (Q9UBN7 with tags, fused parts or gaps): as above
Method: In this example, conjugates of suberoylanilide hydroxamic acid (SAHA), an inhibitor of histone deacetylase 6 (HDAC6), and a PBI dye (SAHA-TOM (PBI-4968); See FIGS. 8A-B) or standard dye (SAHA-TAMRA (PBI-4967); See FIGS. 8A-B) were utilized in an intracellular BRET assay using a NANOLUC-HDAC fusion protein (SEQ ID NO: 3).
HEK293 cells were transfected using FuGene HD (Promega Corp.) with plasmid DNA encoding a NANOLUC-HDAC6 fusion protein. NANOLUC-HDAC6 DNA was diluted 1:1000 with a promoterless carrier DNA (pGEM3Z) to yield a final concentration of 50 ng/well total DNA in 96-well plate format (at a seeding density of 20,000 cells/well). Twenty-four hours post-transfection, cells were then incubated with serially-diluted tracer in the presence or absence of a molar excess of unlabeled SAHA (as a specificity control). Following equilibration with the drug tracers, furimazine (a coelenterazine derivative substrate for NANOLUC; Promega Corp.) was added at a concentration of 20 uM, and BRET was quantified on a Varioskan luminometer. The specific BRET signal was calculated by subtracting the non-specific signal (in the presence of unlabeled SAHA) from the signal generated from the SAHA tracer alone.

specific BRET signal ([2]; NANOLUC-HDAC6 DNA diluted 1:1000) | EC50 value for binding within living cells [2] | SMILES | binding efficiency to HDAC6 (competitive displacement of tracer) [1]
 |  | O=C(CCCCCCC(=O)Nc1ccccc1)NO [SAHA, suberoylanilide hydroxamic acid] | high binding efficiency
superior, specific BRET signal | left-shifted | O=C(CCCCCCC(=O)Nc1ccc(CNC(=O)c2ccc(C(=O)O)c(C3=c4cc5c6c(c4Oc4c3cc3c7c4CCCN7CCCC3)CCC[N+]=6CCCC5)c2)cc1)NO [PBI-4968] | 
